In patent US4243408A, “Herbicidal N-triazolylmethyl-substituted alpha-haloacetanilide” (Chevron Research Company, priority 1978, dated 1981) one finds pest or weed control data, which are given here for five molecules.

Format in all cases: in vivo
Test [1] deals with Crabgrass (Digitaria sanguinalis). The experiment in a line: Post-Emergent Test, herbicidal effectiveness. The following applies: post-emergence, 504 h, 33 micrograms per cm^2, 3 weeks, 0-to-100 scale, read-out: Herbicidal Effectiveness, % Control Post, C. In short, it runs like this: (§1)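 Compound in acetone with nonionic surfactant, diluted in water to a 5000 ppm formulation, was sprayed on 24-day-old plants (about 15 to 25 per pot, 2 pots) at 33 micrograms/cm^2. Plants were then kept in a greenhouse with base watering. Rated after 3 weeks on a 0-to-100 scale (0 = no phytotoxicity, 100 = complete kill).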

The subject of test [2] is Pigweed (Amaranthus retroflexus). Description: Post-Emergent Test, herbicidal effectiveness. The following applies: post-emergence, 504 h, 33 micrograms per cm^2, 3 weeks, 0-to-100 scale, read-out: Herbicidal Effectiveness, % Control Post, P. In short, it runs like this: as §1
Test [3] has as its system Wild Oats (Avena fatua). The experiment in a line: Post-Emergent Test, herbicidal effectiveness. To be noted: post-emergence, 504 h, 33 micrograms per cm^2, 3 weeks, 0-to-100 scale, read-out: Herbicidal Effectiveness, % Control Post, O. In short, it runs like this:
as §1

Test [4] deals with Watergrass (Echinochloa). Description: Post-Emergent Test, herbicidal effectiveness. To be noted: post-emergence, 504 h, 33 micrograms per cm^2, 3 weeks, 0-to-100 scale, read-out: Herbicidal Effectiveness, % Control Post, W. The method in brief: as §1
Test [5] deals with Mustard (Brassica arvensis). The experiment in a line: Post-Emergent Test, herbicidal effectiveness. To be noted: post-emergence, 504 h, 33 micrograms per cm^2, 3 weeks, 0-to-100 scale. In short, it runs like this: as §1
Test [6] concerns Lambsquarter (Chenopodium album). Description: Post-Emergent Test, herbicidal effectiveness. The following applies: post-emergence, 504 h, 33 micrograms per cm^2, 3 weeks, 0-to-100 scale, read-out: Herbicidal Effectiveness, % Control Post, L. The method in brief:
as §1

Test [7] deals with Crabgrass (Digitaria sanguinalis). The experiment in a line: Pre-Emergent Test, herbicidal effectiveness. The following applies: pre-emergence, 504 h, 33 micrograms per cm^2, 3 weeks, 0-to-100 scale, read-out: Herbicidal Effectiveness, % Control Pre, C. In short, it runs like this: (§2)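 Compound formulated in acetone with nonionic surfactant, diluted into surfactant-containing water, and sprayed uniformly onto soil of freshly seeded pots at 33 micrograms/cm^2. Pots were watered and kept in a greenhouse, then phytotoxicity was rated visually on a 0–100 scale (0 = none, 100 = complete kill).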

The test system of test [8] is Pigweed (Amaranthus retroflexus). The experiment in a line: Pre-Emergent Test, herbicidal effectiveness. The following applies: pre-emergence, 504 h, 33 micrograms per cm^2, 3 weeks, 0-to-100 scale, read-out: Herbicidal Effectiveness, % Control Pre, P. In short, it runs like this:
as §2

For test [9], the system named is Wild Oats (Avena fatua). The experiment in a line: Pre-Emergent Test, herbicidal effectiveness. To be noted: pre-emergence, 504 h, 33 micrograms per cm^2, 3 weeks, 0-to-100 scale, read-out: Herbicidal Effectiveness, % Control Pre, O. The method in brief: as §2
For test [10], the system named is Watergrass (Echinochloa). The experiment in a line: Pre-Emergent Test, herbicidal effectiveness. To be noted: pre-emergence, 504 h, 33 micrograms per cm^2, 3 weeks, 0-to-100 scale, read-out: Herbicidal Effectiveness, % Control Pre, W. The method in brief: as §2
For test [11], the system named is Mustard (Brassica arvensis). The experiment in a line: Pre-Emergent Test, herbicidal effectiveness. To be noted: pre-emergence, 504 h, 33 micrograms per cm^2, 3 weeks, 0-to-100 scale. The method in brief:
as §2

The test system of test [12] is Lambsquarter (Chenopodium album). Description: Pre-Emergent Test, herbicidal effectiveness. The following applies: pre-emergence, 504 h, 33 micrograms per cm^2, 3 weeks, 0-to-100 scale, read-out: Herbicidal Effectiveness, % Control Pre, L. In short, it runs like this: as §2

As for `Cc1nnc(CN(C(=O)CCl)c2c(C)cccc2C)[nH]1` [Compound 2B, N-(5-methyl-1,2,4-triazol-3-ylmethyl)-2,6-dimethyl-alpha-chloroacetanilide], the pest or weed control at 5000 µg/mL, 33 µg/cm2 was determined as 20% in test [1]; 32% in test [2]; 30% in the test on Wild Oats (Avena fatua) [3]; 75% with Watergrass (Echinochloa) [4]; 25% in test [5]; 50% in test [6]. The pest or weed control at 33 µg/cm2 in [7] was 100%; in [8], 88%; in the test on Wild Oats (Avena fatua) [9], 100%; with Watergrass (Echinochloa) [10], 100%; in test [11], 75%; in test [12], 98%.
Turning to `CSc1nnc(CN(C(=O)CCl)c2c(C)cccc2C)o1` [Compound 24B], the pest or weed control at 5000 µg/mL, 33 µg/cm2 (in test [1]; in test [2]; with Wild Oats (Avena fatua) [3]; in the test with Watergrass (Echinochloa) [4]; in test [5]; in test [6]) was 0% in each case. Besides, the pest or weed control at 33 µg/cm2 came out at 100% in test [7]; 10% in test [8]; 85% in the test on Wild Oats (Avena fatua) [9]; 100% with Watergrass (Echinochloa) [10]; 10% in [11]; 10% in test [12].
For the molecule `Cc1nnc(CNc2c(C)cccc2Cl)[nH]1` [Compound 22A], the pest or weed control at 5000 µg/mL, 33 µg/cm2 (in test [1]; in [2]; in the test with Wild Oats (Avena fatua) [3]; in the test with Watergrass (Echinochloa) [4]; in [5]; in [6]) was 0% throughout. Further, the pest or weed control at 33 µg/cm2 (in [7]; in [8]; with Wild Oats (Avena fatua) [9]; in the test on Watergrass (Echinochloa) [10]; in [11]; in test [12]) was 0% each time.
For the molecule `Cc1cccc(C)c1NCc1nnc(S)[nH]1` [Compound 18A], the pest or weed control at 5000 µg/mL, 33 µg/cm2 (in [1]; in [2]; in the test on Wild Oats (Avena fatua) [3]; in the test with Watergrass (Echinochloa) [4]; in test [5]; in test [6]) was 0% throughout. Further, the pest or weed control at 33 µg/cm2 (in test [7]; in test [8]; in the test on Wild Oats (Avena fatua) [9]; in the test with Watergrass (Echinochloa) [10]; in test [11]; in [12]) was 0% throughout.
Turning to `Cc1nc(CNc2c(C)cccc2C)n[nH]1` [Compound 2A, 3-(2,6-dimethylphenylaminomethyl)-5-methyl-1,2,4-triazole], the pest or weed control at 5000 µg/mL, 33 µg/cm2 (in test [1]; in test [2]; with Wild Oats (Avena fatua) [3]; in the test with Watergrass (Echinochloa) [4]; in test [5]; in test [6]) was 0% in each case. For the same molecule, the pest or weed control at 33 µg/cm2 (in [7]; in test [8]; in the test with Wild Oats (Avena fatua) [9]; in the test with Watergrass (Echinochloa) [10]; in [11]; in [12]) was 0% throughout.
